Here are results for 8 compounds from ChEMBL document CHEMBL1201862, “PubChem BioAssay data set” (2004).

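Where inhibition never reached the appropriate level, the endpoint shown equals the highest concentration tested. Otherwise, values were interpolated linearly from a five-concentration, 48-hour dose response in 96-well plates. GI50 marks 50% less growth.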 Calls of active or inactive are those of the source. No stated cut-off is given here; in the data, active = GI50 up to about 1.1 µM and inactive = higher. A value given as a limit tells only on which side of the number the result lay.

Test systems include A549; T47D; Malme-3M; 786-0; HT-29; BT-549; SF-295; UO-31; NCI-H23; SR; NCI-H460; DU-145; TK-10; UACC-62; OVCAR-4; CAKI-1; HCT-116; HOP-62.
Common to all, as to assay: growth of human tumour cells (NCI), 48 h

As to `O=C1CS(=O)(=O)C(c2cccc(Oc3ccccc3)c2)N1C1CC1` (centres undefined), the GI50 is 35.6 µM (inactive) in the experiment on A549; 35 µM (inactive) in the experiment with T47D; > 100 µM (inactive) in the experiment with Malme-3M; 37.2 µM (inactive) in the experiment on 786-0; 32.7 µM (inactive) with HT-29; 41.7 µM (inactive) in the experiment with BT-549. Moreover, the GI50 in the experiment on SF-295 is 36.6 µM (inactive); with UO-31 it was 27.6 µM (inactive); with NCI-H23, 28 µM (inactive); in the experiment with SR it was 31.6 µM (inactive); in the experiment on NCI-H460, 43.4 µM (inactive); in the experiment with DU-145, 63.2 µM (inactive). The GI50 is 44.7 µM (inactive) with TK-10; 31.6 µM (inactive) in the experiment on UACC-62; 29.2 µM (inactive) with OVCAR-4; 0.045 µM (active) in the experiment with CAKI-1; 25.5 µM (inactive) in the experiment with HCT-116.
For `CC(=O)O[C@H]1CCC2[C@@H]3CCC4Nc5oncc5C[C@]4(C)C3CC[C@@]21C` (some centres undefined), the GI50 in the experiment with A549 is > 10 µM (inactive); in the experiment on T47D, > 10 µM (inactive); in the experiment with Malme-3M it was > 10 µM (inactive); with 786-0, 6.5 µM (inactive); in the experiment on HT-29 it was > 10 µM (inactive); with BT-549 it was > 10 µM (inactive). Besides, the GI50 with SF-295, with UO-31, with NCI-H23, in the experiment with SR, in the experiment on NCI-H460 and in the experiment with DU-145 was > 10 µM (inactive) throughout. In addition, the GI50 in the experiment with TK-10 is > 10 µM (inactive); in the experiment on HOP-62 it was > 10 µM (inactive); with OVCAR-4, > 10 µM (inactive); with CAKI-1 it was > 10 µM (inactive); in the experiment on HCT-116, 6.49 µM (inactive).
`COC(=O)C1=C([C@H]2COC(C)(C)O2)[C@H]2C[C@@H]1[C@@H]1OC(C)(C)O[C@@H]12`: the GI50 in the experiment on A549, in the experiment with T47D, in the experiment with Malme-3M, with 786-0, in the experiment on HT-29 and in the experiment with BT-549 was > 100 µM (inactive) in each case. In addition, the GI50 in the experiment on SF-295, in the experiment with UO-31, in the experiment with NCI-H23, with SR, in the experiment on NCI-H460 and with DU-145 was > 100 µM (inactive) in each case. Also, the GI50 with TK-10, in the experiment on HOP-62, in the experiment on UACC-62, in the experiment on OVCAR-4 and in the experiment with HCT-116 was > 100 µM (inactive) throughout.
Regarding `Oc1c(Br)cc(/C=C/c2cccc(/C=C/c3cc(Br)c(O)c(Br)c3)n2)cc1Br`, the GI50 was 3.72 µM (inactive) in the experiment with A549; 5.89 µM (inactive) in the experiment with T47D; 14.8 µM (inactive) in the experiment with 786-0; 12.6 µM (inactive) with HT-29; 26.1 µM (inactive) in the experiment on BT-549; 7.87 µM (inactive) in the experiment with SF-295. In addition, the GI50 in the experiment on UO-31 was 15.1 µM (inactive); in the experiment on SR, 5.15 µM (inactive); in the experiment with NCI-H460 it was 2.96 µM (inactive); in the experiment with DU-145 it was < 0.01 µM (active); in the experiment with TK-10 it was 14.2 µM (inactive); in the experiment with HOP-62, 31.6 µM (inactive). Besides, the GI50 was 15.7 µM (inactive) in the experiment with UACC-62, 13.3 µM (inactive) in the experiment with OVCAR-4, 11.5 µM (inactive) with CAKI-1 and 8.81 µM (inactive) in the experiment with HCT-116.
As for `Cn1c(=O)c2c(nc3n(Cc4ccccc4)c(=O)c(NCCCBr)cn23)n(C)c1=O`, the GI50 is > 100 µM (inactive) in the experiment on A549; > 100 µM (inactive) in the experiment with T47D; 23.9 µM (inactive) with 786-0; > 100 µM (inactive) in the experiment with HT-29; > 100 µM (inactive) with BT-549; 31.8 µM (inactive) in the experiment with SF-295. For the same compound, the GI50 is > 100 µM (inactive) in the experiment on UO-31; > 100 µM (inactive) with NCI-H23; 23 µM (inactive) with SR; > 100 µM (inactive) with NCI-H460; > 100 µM (inactive) in the experiment on DU-145; 38.5 µM (inactive) with TK-10. Besides, the GI50 in the experiment on HOP-62 is 26.5 µM (inactive); in the experiment with UACC-62 it was > 100 µM (inactive); in the experiment with OVCAR-4, > 100 µM (inactive); in the experiment on CAKI-1, > 100 µM (inactive); in the experiment with HCT-116 it was 54 µM (inactive).
For `Cn1c2ccccc2c(=S)c2ccccc21`, the GI50 with A549, with T47D, with 786-0, with HT-29, with BT-549 and with SF-295 was > 100 µM (inactive) each time. Also, the GI50 in the experiment on UO-31, with NCI-H23, with SR, in the experiment with NCI-H460, in the experiment on DU-145 and with TK-10 was > 100 µM (inactive) each time. In addition, the GI50 in the experiment on HOP-62, in the experiment with UACC-62, with CAKI-1 and with HCT-116 was > 100 µM (inactive) throughout.
`CCOC(=O)c1nc2ccc(C(F)(F)F)cc2nc1Nc1ccc(OC)cc1`: the GI50 with A549 is 50.1 µM (inactive); with T47D it was > 100 µM (inactive); in the experiment on Malme-3M, > 100 µM (inactive); with 786-0, 25.8 µM (inactive); in the experiment with HT-29, > 100 µM (inactive); with BT-549, 27.9 µM (inactive). The GI50 is 26.9 µM (inactive) in the experiment with SF-295; > 100 µM (inactive) in the experiment with UO-31; 49.1 µM (inactive) in the experiment with NCI-H23; > 100 µM (inactive) in the experiment with SR; 41.1 µM (inactive) in the experiment on NCI-H460; > 100 µM (inactive) in the experiment on DU-145. For the same compound, the GI50 in the experiment on TK-10 is > 100 µM (inactive); with HOP-62, 24.3 µM (inactive); in the experiment on UACC-62, 55.7 µM (inactive); in the experiment with OVCAR-4 it was 18.6 µM (inactive); in the experiment on HCT-116 it was 56.4 µM (inactive).
As to `CC(C)=CCC[C@](C)(O[C@@H]1O[C@H](CO)[C@@H](O)[C@H](O)[C@H]1O)[C@H]1CC[C@]2(C)[C@@H]1[C@H](O)C[C@@H]1[C@@]3(C)CC[C@H](O)C(C)(C)[C@@H]3[C@@H](O[C@@H]3O[C@H](CO)[C@@H](O)[C@H](O)[C@H]3O[C@@H]3O[C@@H](C)[C@H](O)[C@@H](O)[C@H]3O)C[C@]12C.CC(C)=CCC[C@](C)(O[C@@H]1O[C@H](CO)[C@@H](O)[C@H](O)[C@H]1O)[C@H]1CC[C@]2(C)[C@@H]1[C@H](O)C[C@@H]1[C@@]3(C)CC[C@H](O)C(C)(C)[C@@H]3[C@@H](O[C@@H]3O[C@H](CO)[C@@H](O)[C@H](O)[C@H]3O[C@@H]3O[C@H](CO)[C@@H](O)[C@H](O)[C@H]3O)C[C@]12C`, the GI50 in the experiment with A549 was > 75 µM (inactive); with T47D, > 75 µM (inactive); in the experiment with 786-0, > 75 µM (inactive); in the experiment on HT-29, > 75 µM (inactive); in the experiment with BT-549, 28.2 µM (inactive); in the experiment with SF-295, 60.3 µM (inactive). For the same compound, the GI50 was > 75 µM (inactive) in the experiment with UO-31; > 75 µM (inactive) in the experiment on NCI-H23; 29.2 µM (inactive) with SR; 7.5 µM (inactive) with NCI-H460; > 75 µM (inactive) in the experiment with DU-145; > 75 µM (inactive) in the experiment on TK-10. Also, the GI50 in the experiment with HOP-62 is 22.9 µM (inactive); in the experiment on UACC-62, > 75 µM (inactive); in the experiment with OVCAR-4, > 75 µM (inactive); with CAKI-1, > 75 µM (inactive); in the experiment with HCT-116 it was > 75 µM (inactive).
